Assay results published in patent US20250262201A1, “COMPOUNDS AND METHODS USEFUL FOR STABILIZING PHENYLALANINE HYDROXYLASE MUTATIONS” (Agios Pharmaceuticals, Inc., priority 2022, published 2025).

Biological target: T1, human PAH with the R408W mutation (Homo sapiens, UniProt P00439, R408W)
T1 construct: expressed in transfected cells
T1 sequence (P00439 1-452 R408W): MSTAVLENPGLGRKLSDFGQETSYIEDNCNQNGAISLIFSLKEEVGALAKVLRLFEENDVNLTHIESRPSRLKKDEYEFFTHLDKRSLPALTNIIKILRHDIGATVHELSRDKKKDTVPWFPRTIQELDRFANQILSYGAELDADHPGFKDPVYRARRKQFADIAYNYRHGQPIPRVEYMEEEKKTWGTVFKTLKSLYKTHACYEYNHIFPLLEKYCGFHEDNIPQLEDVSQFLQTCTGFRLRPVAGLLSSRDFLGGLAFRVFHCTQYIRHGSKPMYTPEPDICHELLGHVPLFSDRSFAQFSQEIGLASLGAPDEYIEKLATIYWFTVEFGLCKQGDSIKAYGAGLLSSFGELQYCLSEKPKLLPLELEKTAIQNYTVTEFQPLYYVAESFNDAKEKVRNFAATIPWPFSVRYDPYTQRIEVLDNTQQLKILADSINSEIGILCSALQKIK
Experiment: Cell Based Phenylalanine Flux Assay
Details: A375 R408W cells, 24 hrs with compound, then 20 μM sepiapterin and 800 μM 13C9,15N-Phenylalanine for 4 hours; 13C-Tyrosine by LC-MS; average where tested multiple times; read-out: AC50

Compound | AC50
O=C(c1nc2ccccc2s1)N1CCc2[nH]cnc2C1c1ccc2ccccc2c1 (stereo not shown) | > 5 µM
O=C(c1nnc(CCO)o1)N1CCc2[nH]cnc2C1c1ccc2ccccc2n1 (stereo not shown) | > 5 µM
O=C(CCc1ccc(F)cc1)N1CCc2[nH]cnc2C1c1ccc2ccccc2c1 (stereo not shown) | > 5 µM
O=C(CCc1nccs1)N1CCc2[nH]cnc2C1c1cn2ccccc2n1 (stereo not shown) | 1 to 5 µM
Cc1nnc(CC(=O)N2CCc3[nH]cnc3C2c2cn3ccccc3n2)s1 (stereo not shown) | > 5 µM
Cc1ncc(CC(=O)N2CCc3[nH]cnc3C2c2cn3ccccc3n2)o1 (stereo not shown) | > 5 µM
O=C(Cc1nc(C(F)(F)F)cs1)N1CCc2[nH]cnc2C1c1cn2ccccc2n1 (stereo not shown) [listing 1 of 2 here] | 1 to 5 µM
Cc1nc(C2(O)CC2)oc1C(=O)N1CCc2[nH]cnc2C1c1ccc2ccccc2n1 (stereo not shown) [listing 1 of 2 here] | 1 to 5 µM
Cn1nc(C(C)(C)O)cc1C(=O)N1CCc2[nH]cnc2C1c1ccc2ccccc2n1 (stereo not shown) | > 5 µM
CC(C)(O)c1cc(C(=O)N2CCc3[nH]cnc3C2c2ccc3ccccc3n2)no1 (stereo not shown) [listing 1 of 2 here] | 1 to 5 µM
Cc1nnc(C(=O)N2CCc3[nH]cnc3C2c2cn3ccccc3n2)o1 (stereo not shown) | 1 to 5 µM
Cn1ccc(C(=O)N2CCc3[nH]cnc3C2c2ccc3ccccc3n2)n1 (stereo not shown) | 1 to 5 µM
Cn1nc(C(F)(F)F)nc1C(=O)N1CCc2[nH]cnc2C1c1ccc2ccccc2n1 (stereo not shown) | 1 to 5 µM
O=C(c1cn[nH]c1)N1CCc2[nH]cnc2C1c1ccc2ccccc2n1 (stereo not shown) | 1 to 5 µM
O=C(c1ccn[nH]1)N1CCc2[nH]cnc2C1c1ccc2ccccc2n1 (stereo not shown) [listing 1 of 2 here] | 1 to 5 µM
Cc1nc(C(C)(C)S(C)(=O)=O)oc1C(=O)N1CCc2[nH]cnc2C1c1ccc2ccccc2n1 (stereo not shown) | 1 to 5 µM
Cc1nc(C2CCN2)oc1C(=O)N1CCc2[nH]cnc2C1c1ccc2ccccc2n1 (stereo not shown) [listing 1 of 2 here] | 1 to 5 µM
Cc1nc(C(C)(C)O)oc1C(=O)N1CCc2[nH]cnc2C1c1cn2ccccc2n1 (stereo not shown) | 1 to 5 µM
CC(C)(O)c1cc(C(=O)N2CCc3[nH]cnc3C2c2ccc3ccccc3n2)on1 (stereo not shown) [listing 1 of 2 here] | 1 to 5 µM
CC(C)(O)c1cc(C(=O)N2CCc3[nH]cnc3C2c2ccc3ccccc3n2)[nH]n1 (stereo not shown) | > 5 µM
O=C(c1cnn(CC(F)(F)F)c1Cl)N1CCc2[nH]cnc2C1c1ccc2ccccc2n1 (stereo not shown) [listing 1 of 2 here] | 1 to 5 µM
O=C(c1cnco1)N1CCc2[nH]cnc2C1c1cn2ccccc2n1 (stereo not shown) | 1 to 5 µM
O=C(c1cncs1)N1CCc2[nH]cnc2C1c1cn2ccccc2n1 (stereo not shown) [listing 1 of 2 here] | 1 to 5 µM
Cn1cc(-c2ncc(C(=O)N3CCc4[nH]cnc4C3c3ncc4ccccc4n3)o2)cn1 (stereo not shown) [listing 1 of 2 here] | > 5 µM
CC(C)(O)c1nnc(C(=O)N2CCc3[nH]cnc3C2c2ncc3ccccc3n2)o1 (stereo not shown) [listing 1 of 2 here] | > 5 µM

Compound | AC50
CN(C)c1nnc(C(=O)N2CCc3[nH]cnc3C2c2ncc3ccccc3n2)o1 (stereo not shown) [listing 1 of 2 here] | > 5 µM
O=C(c1nnc(-c2ncccn2)o1)N1CCc2[nH]cnc2C1c1ncc2ccccc2n1 (stereo not shown) [listing 1 of 2 here] | > 5 µM
Cc1nnc(C(=O)N2CCc3[nH]cnc3C2c2ncc3ccccc3n2)o1 (stereo not shown) [listing 1 of 2 here] | > 5 µM
CN(C)Cc1ccc2c(C(=O)N3CCc4[nH]cnc4C3c3cn4ccccc4n3)cnn2c1 (stereo not shown) | > 5 µM
O=C(c1cnn2cc(N3CCC(O)CC3)ccc12)N1CCc2[nH]cnc2C1c1ncc2ccccc2n1 (stereo not shown) | 1 to 5 µM
O=C(CCc1nccs1)N1CCc2[nH]cnc2C1c1cc2ccccc2nn1 (stereo not shown) | 1 to 5 µM
O=C(Cc1nc(C(F)(F)F)cs1)N1CCc2[nH]cnc2C1c1cn2ccccc2n1 (stereo not shown) [listing 2 of 2 here] | > 5 µM
Cc1nc(C2(O)CC2)oc1C(=O)N1CCc2[nH]cnc2C1c1ccc2ccccc2n1 (stereo not shown) [listing 2 of 2 here] | > 5 µM
CC(C)(O)c1cc(C(=O)N2CCc3[nH]cnc3C2c2ccc3ccccc3n2)no1 (stereo not shown) [listing 2 of 2 here] | > 5 µM
Cn1nc(COC(F)(F)F)cc1C(=O)N1CCc2[nH]cnc2C1c1ccc2ccccc2n1 (stereo not shown) | > 5 µM
O=C(c1ccn[nH]1)N1CCc2[nH]cnc2C1c1ccc2ccccc2n1 (stereo not shown) [listing 2 of 2 here] | > 5 µM
Cc1nc(C2CCN2)oc1C(=O)N1CCc2[nH]cnc2C1c1ccc2ccccc2n1 (stereo not shown) [listing 2 of 2 here] | > 5 µM
CC(C)(O)c1nnc(C(=O)N2CCc3[nH]cnc3C2c2cc3ccccc3nn2)o1 (stereo not shown) | 1 to 5 µM
CC(C)(O)c1cc(C(=O)N2CCc3[nH]cnc3C2c2ccc3ccccc3n2)on1 (stereo not shown) [listing 2 of 2 here] | > 5 µM
Cc1nc(-c2cnn(C)c2)oc1C(=O)N1CCc2[nH]cnc2C1c1ncc2ccccc2n1 (stereo not shown) | > 5 µM
Cn1cncc1-c1nnc(C(=O)N2CCc3[nH]cnc3C2c2ncc3ccccc3n2)o1 (stereo not shown) | 1 to 5 µM
O=C(c1cnn(CC(F)(F)F)c1Cl)N1CCc2[nH]cnc2C1c1ccc2ccccc2n1 (stereo not shown) [listing 2 of 2 here] | > 5 µM
O=C(c1cnco1)N1CCc2[nH]cnc2C1c1cc2ccccc2nn1 (stereo not shown) | 1 to 5 µM
O=C(c1cnc(-c2ccccn2)o1)N1CCc2[nH]cnc2C1c1cc2ccccc2nn1 (stereo not shown) | 1 to 5 µM
Cn1nc(C(F)F)nc1C(=O)N1CCc2[nH]cnc2C1c1cc2ccccc2nn1 (stereo not shown) | 1 to 5 µM
O=C(c1ocnc1C(F)F)N1CCc2[nH]cnc2C1c1cc2ccccc2nn1 (stereo not shown) | 1 to 5 µM
O=C(c1oc(-c2ccccn2)nc1C(F)F)N1CCc2[nH]cnc2C1c1cc2ccccc2nn1 (stereo not shown) | > 5 µM
Cn1ccc(-c2nnc(C(=O)N3CCc4[nH]cnc4C3c3cc4ccccc4nn3)o2)n1 (stereo not shown) | 1 to 5 µM
Cn1cc(-c2nnc(C(=O)N3CCc4[nH]cnc4C3c3cc4ccccc4nn3)o2)cn1 (stereo not shown) | 1 to 5 µM
O=C(c1nnc(-c2ccccn2)o1)N1CCc2[nH]cnc2C1c1cc2ccccc2nn1 (stereo not shown) | 1 to 5 µM

Compound | AC50
O=C(c1nnc(C2CC2)o1)N1CCc2[nH]cnc2C1c1cc2ccccc2nn1 (stereo not shown) | 1 to 5 µM
Cc1nnc(C(=O)N2CCc3[nH]cnc3C2c2cc3ccccc3nn2)o1 (stereo not shown) | > 5 µM
CC(C)(C)c1nnc(C(=O)N2CCc3[nH]cnc3C2c2cc3ccccc3nn2)o1 (stereo not shown) | 1 to 5 µM
O=C(c1cncs1)N1CCc2[nH]cnc2C1c1cn2ccccc2n1 (stereo not shown) [listing 2 of 2 here] | > 5 µM
Cn1cc(-c2ncc(C(=O)N3CCc4[nH]cnc4C3c3ncc4ccccc4n3)o2)cn1 (stereo not shown) [listing 2 of 2 here] | 1 to 5 µM
CC(C)(O)c1ncc(C(=O)N2CCc3[nH]cnc3C2c2ncc3ccccc3n2)o1 (stereo not shown) | > 5 µM
Cc1ncoc1C(=O)N1CCc2[nH]cnc2C1c1ncc2ccccc2n1 (stereo not shown) | 1 to 5 µM
O=C(c1nnc(-c2cn[nH]c2)o1)N1CCc2[nH]cnc2C1c1ncc2ccccc2n1 (stereo not shown) | 1 to 5 µM
CC(C)(O)c1nnc(C(=O)N2CCc3[nH]cnc3C2c2ncc3ccccc3n2)o1 (stereo not shown) [listing 2 of 2 here] | 1 to 5 µM
O=C(c1nnc(N2CC(F)C2)o1)N1CCc2[nH]cnc2C1c1ncc2ccccc2n1 (stereo not shown) | 1 to 5 µM
CN1CCN(c2nnc(C(=O)N3CCc4[nH]cnc4C3c3ncc4ccccc4n3)o2)CC1 (stereo not shown) | 1 to 5 µM
CN(C)c1nnc(C(=O)N2CCc3[nH]cnc3C2c2ncc3ccccc3n2)o1 (stereo not shown) [listing 2 of 2 here] | 1 to 5 µM
O=C(c1nnc(-c2ncccn2)o1)N1CCc2[nH]cnc2C1c1ncc2ccccc2n1 (stereo not shown) [listing 2 of 2 here] | 1 to 5 µM
Cc1nnc(C(=O)N2CCc3[nH]cnc3C2c2ncc3ccccc3n2)o1 (stereo not shown) [listing 2 of 2 here] | 1 to 5 µM
O=C(c1nnc(N2CCOCC2)o1)N1CCc2[nH]cnc2C1c1ncc2ccccc2n1 (stereo not shown) | 1 to 5 µM
CN(C)Cc1ccc2c(C(=O)N3CCc4[nH]cnc4C3c3cc4ccccc4nn3)cnn2c1 (stereo not shown) | > 5 µM
Cc1ncoc1C(=O)N1CC(C)c2[nH]cnc2C1c1cc2ccccc2cn1 (stereo not shown) | > 5 µM
CC1CN(C(=O)c2nnc(-c3cnn(C)c3)o2)C(c2cc3ccccc3cn2)c2nc[nH]c21 (stereo not shown) [listing 1 of 3 here] | 1 to 5 µM
COCc1ccc2c(C(=O)N3CC(C)c4[nH]cnc4C3c3cc4ccccc4cn3)cnn2c1 (stereo not shown) | 1 to 5 µM
CC1CN(C(=O)c2nnc(-c3cnn(C)c3)o2)C(c2cc3ccccc3cn2)c2nc[nH]c21 (stereo not shown) [listing 2 of 3 here] | 1 to 5 µM
COCCNc1nnc(C(=O)N2CC(C)c3[nH]cnc3C2c2cc3ccccc3cn2)o1 (stereo not shown) | 1 to 5 µM
CC1CN(C(=O)c2nnc(NC3CC3)o2)C(c2cc3ccccc3cn2)c2nc[nH]c21 (stereo not shown) | 1 to 5 µM
CC1CN(C(=O)c2nnc(-c3cnn(C)c3)o2)C(c2cc3ccccc3cn2)c2nc[nH]c21 (stereo not shown) [listing 3 of 3 here] | > 5 µM
